Here are results for two compounds from US20130196935A1, “SYNTHETIC GLYCOAMINE COMPOUNDS” (ANIMAL CELL THERAPIES INC., priority 2012, published 2013).

Each structure is given as a SMILES string.

This series in a line: MTS cytotoxicity assay on primary BAEC. Type of series: cell-based, bovine. The settings on record: bovine, primary bovine aortic endothelial cells (BAEC), read-out: Viability of BAEC cells compared to control, Ave (%). The method, then:
1. Testing concentrations of ACT-1 and ACT-2: 8 mM, 4 mM, 2 mM, 1 mM, 0.5 mM, 0.25 mM and 0.125 mM. 2. Trypsinized exponentially growing BAECs (P1) and SVR cells (P4), and prepared 5×10^4 cells/mL cell solution for BAECs and […] for SVR cells. Add 100 μl of cell solution to 96-well plates to achieve 5,000 cells/well for BAECs and 1,000 cells/well for SVR cells. Incubated cells at 37° C. overnight. 3. Prepared 8 mM=3.64 mg/mL and 8 mM ACT-2=3.62 mg/mL in BAEC complete culture medium. Sterilized the drug solutions by filtering through 0.2 μm syringe filters. 4. Prepared 2× serial dilutions from 8 mM stock solution by mixing 0.6 mL drug solution with 0.6 mL culture medium. 5. Aspirated medium from wells and added 80 μl of test article solutions to the wells according to the layout below.
6. Incubated cells at 37° C. for 48 hours. 7. Aspirated the medium from wells and added fresh 70 μl culture medium to the wells. 8. Prepared MTS reagent (Promega CellTiter 96 Aqueous MTS assay reagents, Cat #G5421) by mixing 2.4 mL MTS, 120 μl PMS and 3.779 mL culture medium. Added 50 μl MTS assay reagent to the wells using a multiple channel pipette. 9. Incubate at 37° C. for 2 hours. Read absorbance at 490 nm using a plate reader.

One may read the viability as a read-out of living cells in per cent, often relative to untreated cells. For `CC(C)CC(NC[C@@]1(O)OC[C@@H](O)[C@@H](O[C@@H]2O[C@H](CO)[C@H](O)[C@H](O)[C@H]2O)[C@@H]1O)C(=O)O` (stereo in doubt) [ACT-1], the viability at 48 h, 0.125 mM is 104%; the viability at 48 h, 0.25 mM is 112%; the viability at 48 h, 0.5 mM came out at 118%; the viability at 48 h, 1 mM came to 126%. In addition, the viability at 48 h, 2 mM was 122%; the viability at 48 h, 4 mM came to 112%; the viability at 48 h, 8 mM was found to be 99.4%.

On to `O=C(O)[C@H](CC1CC1)NC[C@@]1(O)OC[C@@H](O)[C@@H](O[C@@H]2O[C@H](CO)[C@H](O)[C@H](O)[C@H]2O)[C@@H]1O` [ACT-2], for which the viability at 48 h, 0.125 mM amounted to 107%; the viability at 48 h, 0.25 mM amounted to 133%; the viability at 48 h, 0.5 mM was 136%; the viability at 48 h, 1 mM came to 132%. In addition, the viability at 48 h, 2 mM turned out to be 133%; the viability at 48 h, 4 mM came out at 118%; the viability at 48 h, 8 mM came to 106%.
